Laboratory results taken from EP1870419A2, “Modulators of beta-amyloid peptide aggregation comprising D-amino acids” (Praecis Pharmaceuticals Incorporated, priority 1999, dated 2000).

Columns and labels:
Aβ1-40 = molecular target: T1, Aβ1-40 (Homo sapiens, UniProt P05067); test: Nucleation assay (turbidity at 405 nm, change in lag time); format: biochemical; conditions: for Nucleation assay Δlag 1.25 µM / Nucleation assay Δlag […] / Nucleation assay Δlag 5 µM: Table I; for Nucleation assay data 0.3 µM / Nucleation assay data 1 µM / Nucleation assay data 3 µM: Table II
T1 construct: first Aβ1-40 peptide is dissolved in HFIP
T1 sequence (P05067 672-711): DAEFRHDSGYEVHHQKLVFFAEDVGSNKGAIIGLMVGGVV
Description: The nucleation assay is employed to determine the ability of test compounds to alter (e.g. inhibit) the early events in formation of β-AP fibers from monomeric β-AP. Characteristic of a nucleated polymerization mechanism, a lag time is observed prior to nucleation, after which the peptide rapidly forms fibers as reflected in a linear rise in turbidity. The time delay before polymerization of β-AP monomer can be quantified as well as the extent of formation of insoluble fiber by light scattering (turbidity). Polymerization reaches equilibrium when the maximum turbidity reaches a plateau. The turbidity of a solution of natural β-AP in the absence or presence of various concentrations of a β-amyloid modulator compound is determined by measuring the apparent absorbance of the solution at 405nm (A405 nm) over time. The threshold of sensitivity for the measurement of turbidity is in the range of 15-20 µM β-AP. […] This assay can be performed using stirring or shaking to accelerate polymerization, thereby increasing the speed of the assay. Moreover the assay can be adapted to a 96-well plate format to screen multiple compounds.
To perform the nucleation assay, first Aβ1-40 peptide is dissolved in HFIP (1,1,1,3,3,3-Hexafluoro-2-propanol; Aldrich 10,522-8) at a concentration of 2 mg peptide/ml and incubated at room temperature for 30 min. HFIP-solubilized peptide is sonicated in a waterbath sonicator for 5 min at highest setting, then evaporated to dryness under a stream of argon. The peptide film is resuspended in anhydrous dimethylsulfoxide (DMSO) at a concentration of 6.9 mg/ml (25x concentration), sonicated for 5 min as before, then filtered through a 0.2 micron nylon syringe filter (VWR cat. No. 28196-050). Test compounds are dissolved in DMSO at a 100x concentration. Four volumes of 25x Aβ1-40 peptide in DMSO are combined with one volume of test compound in DMSO in a glass vial, and mixed to produce a 1:1 molar ratio of Aβ peptide to test compound. For different molar ratios, test compounds are diluted with DMSO prior to addition to Aβ1-40, in order to keep the final DMSO and Aβ1-40 concentrations constant. […] Ten microliters of the mixture is then added to the bottom of a well of a Coming Costar ultra low binding 96-well plate (Corning Costar, Cambridge MA; cat. No. 2500). Ninety microliters of water is added to the well, the plate is shaken on a rotary shaken at a constant speed at room temperature for 30 seconds, an additional 100 µl of 2x PTL buffer (20 mM NaH2PO4, 300 mM NaCl, pH 7.4) is added to the well, the plate is reshaken for 30 seconds and a baseline (t=0) turbidity reading is taken by measuring the apparent absorbance at 405 nm using a Bio-Rad Model 450 Microplate Reader. The plate is then returned to the shaker and shaken continuously for 5 hours. Turbidity readings are taken at 15 minute intervals.
β-amyloid aggregation in the absence of any modulators results in enhanced turbidity of the natural β-AP solution (i.e., an increase in the apparent absorbance at 405 nm over time).

PC12 cells = test: Neurotoxicity assay (MTT viability), PC-12 cells; format: cell-based, rat; conditions: aged (5 day or 8 day) aggregates, 48 hours, read-out: EC50 for toxicity
Description: (§1) The neurotoxicity of natural β-amyloid peptide aggregates, in either the presence or absence of a β-amyloid modulator, can be tested in a cell-based assay using either a rat or human neuronally-derived cell line (PC-12 cells or NT-2 cells, respectively) and the viability indicator […]-tetrazolium bromide (MTT). (See e.g., Shearman, M.S. et al. (1994) Proc. Natl. Acad. Sci. USA 91:1470-1474; Hansen, M.B. et al. (1989) J Immun. Methods 119:203-210 for a description of similar cell-based viability assays). PC-12 is a rat adrenal pheochromocytoma cell line and is available from the American Type Culture Collection, Rockville, MD (ATCC CRL 1721). MTT (commercially available from Sigma Chemical Co.) is a chromogenic substrate that is converted from yellow to blue in viable cells, which can be detected spectrophotometrically. […]

NT2 cells = test: Neurotoxicity assay (MTT viability), NT-2 cells; format: cell-based, human; conditions: aged (5 day or 8 day) aggregates, 48 hours, read-out: EC50 for toxicity
Description: as §1

[1] = 1.25 µM test compound, 5 µM Aβ1-40, ratio to control lag time
[2] = 5 µM test compound, 5 µM Aβ1-40, ratio of lag time with compound to lag time of control
[3] = […] test compound, 5 µM Aβ1-40, ratio to control lag time
[4] = 0.3 µM test compound, 5 µM Aβ1-40, ΔLag, ratio to control lag time
[5] = 1 µM test compound, 5 µM Aβ1-40, ΔLag, ratio to control lag time
[6] = 3 µM test compound, 5 µM Aβ1-40, ΔLag, ratio to control lag time
[7] = rows marked *: measured at 0.6 µM of compound
[8] = rows marked *: measured at 1.25 µM of compound
[9] = rows marked *: measured at […] of compound

Substance | Nucleation assay Δlag 1.25 µM (Aβ1-40; [1]) | Nucleation assay Δlag 5 µM (Aβ1-40; [2]) | Nucleation assay Δlag […] (Aβ1-40; [3]) | also measured
TFA·H-(Glvffl)-NH2 [PPI-1013] | – | – | – | Nucleation assay Δlag 1.25 µM (Aβ1-40; rows marked #: measured at 0.6 µM of compound): 2; Nucleation assay Δlag […] (Aβ1-40; rows marked #: measured at 1.25 µM of compound): >3; Nucleation assay Δlag 5 µM (Aβ1-40; rows marked #: measured at […] of compound): 2
TFA·N,N-diethyl-(affvl)-NH, [PPI-1006] | 1 | 1 | 1 | –
TFA·H-(lvffa)-isopropylamide [PPI-992] | 1 | 3 | 1 | –
TFA·N-ethyl-(Gaffvl)-NH2 [PPI-969] | 3 | >5 | >5 | –
TFA·N,N-dimethyl-(Gaffvl)-NH2 [PPI-803] | <1 | <1 | <1 | –
TFA·N,N-dimethyl-(affvl)-NH2 [PPI-913] | 1 | 1 | 1 | –
TFA·H-(lf-[F5]f-vl)-NH2 [PPI-1320] | – | – | – | Nucleation assay data 0.3 µM (Aβ1-40; [4]): 1; Nucleation assay data 1 µM (Aβ1-40; [5]): 3; Nucleation assay data 3 µM (Aβ1-40; [6]): >5
2 TFA·H-lvf-NH-NH-fvl-H [PPI-1125] | – | – | – | Nucleation assay data 0.3 µM (Aβ1-40; [7]): 2.0; Nucleation assay data 1 µM (Aβ1-40; [8]): >2.5; Nucleation assay data 3 µM (Aβ1-40; [9]): >2.5
TFA·N-isopropyl-(Gaffvl)-NH2 [PPI-970] | 1 | >5 | >5 | –
TFA·N,N-diethyl-(Gaffvl)-NH2 [PPI-1005] | 1 | 3 | 3 | –
2TFA·H-(lfkvl)-NH2 [PPI-1321] | – | – | – | Nucleation assay data 0.3 µM (Aβ1-40; [4]): <1; Nucleation assay data 1 µM (Aβ1-40; [5]): <1; Nucleation assay data 3 µM (Aβ1-40; [6]): <1
TFA•N-methyl-(lvffl)-NH2 [PPI-1019] | – | – | – | Nucleation assay data 0.3 µM (Aβ1-40; [7]): 2.0; Nucleation assay data 1 µM (Aβ1-40; [8]): >2.5; Nucleation assay data 3 µM (Aβ1-40; [9]): >2.5
TFA·N-methyl-(Gaffvl)-NH2 [PPI-968] | 2 | >5 | >5 | –
TFA·H-(lf-D-Cha-vl)-NH2 [PPI-1318] | – | – | – | Nucleation assay data 0.3 µM (Aβ1-40; [4]): 1; Nucleation assay data 1 µM (Aβ1-40; [5]): 2; Nucleation assay data 3 µM (Aβ1-40; [6]): >5
TFA·H-(lf-[p-F]f-vl)-NH2 [PPI-1319] | – | – | – | Nucleation assay data 0.3 µM (Aβ1-40; [4]): 1; Nucleation assay data 1 µM (Aβ1-40; [5]): >5; Nucleation assay data 3 µM (Aβ1-40; [6]): >5
aged Aβ1-40 aggregates: Aβ1-40 peptide solution incubated at 37 °C for eight days to allow fibrils to form | – | – | – | EC50 (PC12 cells): 1 to 2 µM; EC50 (NT2 cells): 1 to 2 µM
TFA·H-(lvffa)-dimethylamide [PPI-993] | 1 | 1 | 1 | –
